Common to all, as to experiment: NCI anticancer screen, dose series, 48 h
The subject of experiment [1] is M14.
In experiment [2] the test system is OVCAR-3.
Experiment [3] deals with SR.
Experiment [4] has as its system DU-145.
In experiment [5] the test system is NCI-H226.
Experiment [6] relates to OVCAR-4.
The test system of experiment [7] is OVCAR-8.
The subject of experiment [8] is SF-268.
In experiment [9] the test system is U-251.
The test system of experiment [10] is 786-0.
For experiment [11], the system named is HCT-15.
For experiment [12], the system named is HCC 2998.
In experiment [13] the test system is UACC-62.
Experiment [14] relates to UO-31.
The subject of experiment [15] is HL-60.
In experiment [16] the test system is NCI-H460.
The test system of experiment [17] is HT-29.
For experiment [18], the system named is NCI-H522.
Experiment [19] deals with OVCAR-5.

SMILES strings stand for the structures.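 All cell lines were grown in 96-well plates and treated with compound for 48 hours. GI50 is the concentration that inhibits growth by half.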 The source made the active and inactive calls. No stated cut-off is given here; in the data, active = GI50 up to about 1.1 µM and inactive = higher.

As for `COc1ccc2nc3ccccc3c(NCCCCN(C)CCCl)c2c1`, the GI50 was 0.0711 µM (active) in experiment [1]; 0.0392 µM (active) in experiment [2]; < 0.01 µM (active) in experiment [3]; 0.0537 µM (active) in [4]; 0.0692 µM (active) in [5]; 0.0889 µM (active) in [6]. The GI50 in [7] was 0.0254 µM (active); in experiment [8] it was 0.0186 µM (active); in [9] it was 0.0344 µM (active); in experiment [10], 0.0177 µM (active); in [11], 0.0185 µM; in experiment [12], 0.0893 µM (active). Also, the GI50 in experiment [13] was 0.0373 µM (active); in experiment [14], 0.107 µM (active); in experiment [15] it was 0.0188 µM (active); in [16], 0.014 µM (active); in [17], 0.0178 µM (active); in experiment [18] it was < 0.0143 µM (active). Also, the GI50 in experiment [19] is 0.186 µM (active).
With `O=C1CC2c3ccccc3CCC2c2ccccc21` (stereo not given), the GI50 in [1] is 15.7 µM (inactive); in [2], 13.3 µM (inactive); in experiment [3], 46.7 µM (inactive); in experiment [4] it was 57.8 µM (inactive); in [5] it was 12.1 µM (inactive); in [6], > 10 µM (inactive). Besides, the GI50 is 21.2 µM (inactive) in experiment [7]; 27.5 µM (inactive) in experiment [8]; 34.8 µM (inactive) in [9]; 31.3 µM (inactive) in experiment [10]; 14.1 µM in experiment [11]; 21.5 µM (inactive) in experiment [12]. The GI50 was 20 µM (inactive) in experiment [13]; 15.2 µM (inactive) in experiment [14]; 21.6 µM (inactive) in experiment [15]; 22.3 µM (inactive) in [16]; 13.3 µM (inactive) in experiment [17]; 23.3 µM (inactive) in [18]. Further, the GI50 in experiment [19] was 24.4 µM (inactive).
For the molecule `COC(=O)/C=C(/C=C1/C(C#N)=C(N)N(c2ccc(Cl)cc2)C1(C)/C(=C\C(=O)OC)C(=O)OC)C(=O)OC` (stereo not given), the GI50 in experiment [1] was 19.5 µM (inactive); in experiment [2], 18.4 µM (inactive); in experiment [3] it was 28.5 µM (inactive); in experiment [4], 35.5 µM (inactive); in [5], 24.1 µM (inactive); in experiment [6] it was 18.9 µM (inactive). The GI50 in experiment [7] was 17.3 µM (inactive); in [8], 19.5 µM (inactive); in experiment [9] it was 26.1 µM (inactive); in experiment [10], 18.1 µM (inactive); in [11], 18.5 µM; in experiment [12], 20 µM (inactive). For the same molecule, the GI50 was 12.9 µM (inactive) in [13]; 17.9 µM (inactive) in experiment [14]; 13.7 µM (inactive) in [15]; 19.5 µM (inactive) in experiment [16]; 17 µM (inactive) in experiment [17]; 5.69 µM (inactive) in experiment [18]. In addition, the GI50 in experiment [19] is 21.3 µM (inactive).
Turning to `CN(C)CCNc1ncnc2[nH]c(-c3ccc4ccccc4c3)nc12`, the GI50 in [1], in experiment [2], in [3], in [4], in experiment [5] and in experiment [6] was > 100 µM (inactive) throughout. Further, the GI50 in experiment [7] was > 100 µM (inactive); in [8], > 100 µM (inactive); in experiment [9], > 100 µM (inactive); in [10] it was > 100 µM (inactive); in experiment [11], greater than 100 µM; in experiment [12], > 100 µM (inactive). In addition, the GI50 in experiment [13], in experiment [14], in [15], in experiment [16], in experiment [17] and in experiment [18] was > 100 µM (inactive) throughout. In addition, the GI50 in experiment [19] is > 100 µM (inactive).
Consider `CC(C)(C)C1=CC(=C(c2ccc(-c3c4nc(c(-c5ccc(C(=C6C=C(C(C)(C)C)C(=O)C(C(C)(C)C)=C6)c6cc(C(C)(C)C)c(O)c(C(C)(C)C)c6)cc5)c5ccc([nH]5)c(-c5ccc(C(=C6C=C(C(C)(C)C)C(=O)C(C(C)(C)C)=C6)c6cc(C(C)(C)C)c(O)c(C(C)(C)C)c6)cc5)c5nc(c(-c6ccc(C(=C7C=C(C(C)(C)C)C(=O)C(C(C)(C)C)=C7)c7cc(C(C)(C)C)c(O)c(C(C)(C)C)c7)cc6)c6ccc3[nH]6)C=C5)C=C4)cc2)c2cc(C(C)(C)C)c(O)c(C(C)(C)C)c2)C=C(C(C)(C)C)C1=O`, for which the GI50 in [1], in [2], in [3], in [4], in [5] and in experiment [6] was > 100 µM (inactive) throughout. The GI50 was > 100 µM (inactive) in [7]; > 100 µM (inactive) in experiment [8]; > 100 µM (inactive) in experiment [9]; > 77.8 µM (inactive) in experiment [10]; greater than 100 µM in experiment [11]; > 100 µM (inactive) in [12]. The GI50 in [13], in [14], in [15], in [16], in experiment [17] and in experiment [18] was > 100 µM (inactive) throughout. Moreover, the GI50 in experiment [19] was > 100 µM (inactive).
Take `CCCC(=O)Nc1cc(/C=C/C(=O)N2C[C@H]3C[C@@]34C2=CC(=O)c2[nH]cc(C)c24)n(C)c1`: the GI50 in experiment [1], in experiment [2], in experiment [3], in experiment [4], in experiment [5] and in [6] was < 0.0025 µM (active) in each case. In addition, the GI50 in experiment [7] was < 0.0025 µM (active); in [8] it was < 0.0025 µM (active); in experiment [9] it was < 0.0025 µM (active); in [10], < 0.0025 µM (active); in experiment [11], 0.0103 µM; in experiment [12], < 0.0025 µM (active). In addition, the GI50 in [13] is < 0.0025 µM (active); in experiment [14], 0.00403 µM (active); in experiment [15], < 0.0025 µM (active); in experiment [16] it was < 0.0025 µM (active); in experiment [17], < 0.0025 µM (active); in experiment [18], < 0.0025 µM (active). The GI50 in experiment [19] is < 0.0025 µM (active).
Take `COc1cc2c(cc1OC)C(=O)C1(C2)[C@H](c2ccccc2)C2C(=O)c3cc(OC)c(OC)cc3C2[C@H]1c1ccccc1` (stereo not given in full): the GI50 in experiment [1], in experiment [2], in experiment [3], in experiment [4], in experiment [5] and in experiment [6] was > 100 µM (inactive) throughout. The GI50 is > 100 µM (inactive) in experiment [7]; > 100 µM (inactive) in experiment [8]; > 100 µM (inactive) in [9]; > 100 µM (inactive) in experiment [10]; greater than 100 µM in experiment [11]; > 100 µM (inactive) in experiment [12]. Besides, the GI50 is > 100 µM (inactive) in experiment [13]; > 100 µM (inactive) in [14]; > 100 µM (inactive) in [15]; 49.1 µM (inactive) in experiment [16]; > 100 µM (inactive) in experiment [17]; > 100 µM (inactive) in experiment [18]. Besides, the GI50 in [19] was > 100 µM (inactive).
For `COc1cc2c(c(OC)c1OC)-c1ccc(SC)c(=O)cc1[C@@H](NC(=O)C(F)(F)F)CC2`, the GI50 is < 0.01 µM (active) in experiment [1]; < 0.0158 µM (active) in experiment [2]; < 0.01 µM (active) in experiment [3]; < 0.01 µM (active) in experiment [4]; 0.199 µM (active) in experiment [5]; 10.3 µM (inactive) in experiment [6]. In addition, the GI50 in experiment [7] is < 0.01 µM (active); in experiment [8] it was < 0.01 µM (active); in [9], < 0.01 µM (active); in experiment [10], < 0.01 µM (active); in experiment [11] it was less than 0.01 µM; in experiment [12] it was < 0.01 µM (active). Also, the GI50 in [13] was < 0.0102 µM (active); in [14] it was < 0.0146 µM (active); in [15], < 0.01 µM (active); in experiment [16], < 0.01 µM (active); in experiment [17], < 0.01 µM (active); in experiment [18], < 0.01 µM (active). For the same molecule, the GI50 in [19] was 0.259 µM (active).
With `O=C(NC(Cc1c[nH]c2ccccc12)C(=O)Nc1ccc(Br)cc1)OCc1ccccc1` (stereo not given), the GI50 is 11.8 µM (inactive) in [1]; 11.6 µM (inactive) in experiment [2]; 6.95 µM (inactive) in experiment [3]; 13.3 µM (inactive) in experiment [4]; 14.5 µM (inactive) in experiment [5]; 9.14 µM (inactive) in [6]. Further, the GI50 in experiment [7] is 13.6 µM (inactive); in experiment [8], 12.7 µM (inactive); in [9] it was 12 µM (inactive); in [10], 10.8 µM (inactive); in [11] it was 11.1 µM; in experiment [12], 11 µM (inactive). Moreover, the GI50 is 10.1 µM (inactive) in [13]; 9.1 µM (inactive) in [14]; 3.97 µM (inactive) in experiment [15]; 6.22 µM (inactive) in experiment [16]; 6.19 µM (inactive) in experiment [17]; 10.1 µM (inactive) in [18]. Also, in experiment [19], the GI50 was 17.2 µM (inactive).
Consider `O=C(NCCCCCCCN1CCCCCCC1)C(C1CCCCC1)C1CCCCC1`, for which the GI50 in experiment [1] was 2.01 µM (inactive); in experiment [2], 6.07 µM (inactive); in [3], 2.34 µM (inactive); in [4], 13.8 µM (inactive); in experiment [5], 9.42 µM (inactive); in [6] it was 9.38 µM (inactive). For the same molecule, the GI50 in experiment [7] was 12.3 µM (inactive); in experiment [8] it was 15.8 µM (inactive); in experiment [9], 8.51 µM (inactive); in experiment [10] it was 4.74 µM (inactive); in experiment [11], 4.07 µM; in [12], 2.76 µM (inactive). Further, the GI50 in [13] was 4.76 µM (inactive); in experiment [14] it was 9.53 µM (inactive); in experiment [15], 5.14 µM (inactive); in experiment [16] it was 9.1 µM (inactive); in experiment [17], 2.82 µM (inactive); in experiment [18], 14 µM (inactive). In addition, the GI50 in [19] is 11 µM (inactive).

The values are drawn from ChEMBL document CHEMBL1201862, “PubChem BioAssay data set” (2004).
